What was measured:
[1] = test system: HT29 cells; test: Western blot of proliferation/apoptosis markers in HT29 cells; assay type: cell-based
Description: In addition, the expression of two components of the apoptotic pathway, such as caspase 3 and its substrate Poly (ADP-ribose) polymerase (PARP), was affected resulting in a reduction of the pro-caspase 3 precursor and an increase of the PARP cleaved form. Pre-treatment with GW9662 counteracted both the effects (Fig. 7b,c).
The graphs in (a–c) represent the mean ± SD of the protein/β-actin ratio from two independent experiments for p21^waf1/cip1, Caspase-3 precursor and cleaved PARP proteins, respectively. The graph in (d) represents the mean ± SD of pAKT/AKT ratio from two independent experiments.
Treated and untreated cells were lysed in Ripa buffer (150 mM NaCl, 50 mM Tris-HCl, pH 7.6, 10 mM EDTA, 1% NP-40) containing also a protease inhibitors cocktail and then centrifugated at 17,000 RCF for 10 min, at 4 °C. Supernatant containing total proteins was quantified and 80 μg of each sample were separated on 12% SDS-PAGE. Western blotting assays were carried out] Protein extracts from treated and untreated cells were obtained, quantified and analyzed by Western blot as reported.

[2] = molecular target: T1, wild-type PPARγ1 (Homo sapiens, UniProt P37231); test: PPRE-luciferase transactivation in HEK293T cells co-transfected with wild-type PPARγ1; assay type: cell-based; conditions: wild type receptor, 24 h
T1 construct: expressed in transfected cells; host or cells: HEK293T (transient); vectors from Takuma Shiraki
T1 sequence (P37231 1-477 isoform P37231-2): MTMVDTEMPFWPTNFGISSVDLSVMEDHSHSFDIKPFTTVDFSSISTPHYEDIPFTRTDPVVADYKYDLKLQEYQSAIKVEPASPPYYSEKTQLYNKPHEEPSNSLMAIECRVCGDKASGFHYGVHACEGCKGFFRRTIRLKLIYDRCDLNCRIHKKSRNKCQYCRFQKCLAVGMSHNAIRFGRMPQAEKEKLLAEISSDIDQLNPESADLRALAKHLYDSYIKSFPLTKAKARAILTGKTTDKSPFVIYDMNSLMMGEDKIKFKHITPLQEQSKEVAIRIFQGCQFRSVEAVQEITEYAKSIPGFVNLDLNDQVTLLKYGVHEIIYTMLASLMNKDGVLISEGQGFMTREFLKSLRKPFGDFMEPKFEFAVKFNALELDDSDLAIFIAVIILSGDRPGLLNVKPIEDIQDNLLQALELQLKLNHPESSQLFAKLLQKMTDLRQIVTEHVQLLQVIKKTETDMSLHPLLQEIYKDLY
Description: Luciferase activity is reported as fold-induction after normalization to β-galactosidase activity used as control for transfection efficiency. […] (b) Human HEK293T cells were co-transfected with the PPRE-luciferase reporter gene and the wild-type PPARγ1 or its mutant version (C285A). […] Luciferase activity is reported as fold-induction after normalization to β-galactosidase activity used as control for transfection efficiency.
To this goal we transiently transfected basal HEK293T cells with the PPRE-TK-luciferase-reporter plasmid along with the expression vector for the wild-type PPARγ1 or the mutant version carrying the C285A substitution.
HEK293 cells that stably express an exogenous Flag-tagged PPARγ from a transfected PCDNA-3 vector carrying a complete PPARγ cDNA were used for transfection experiments. The PPRE-Luc plasmid contains a luciferase reporter gene under the transcriptional control of three copies of the PPRE (Peroxisome Proliferator Response Element) derived from Acyl-CoA oxidase gene fused upstream to the herpes simplex thymidine kinase (TK) promoter, as described. The RSV-βGal plasmid, expressing β-galactosidase gene, driven by the strong Rous Sarcoma Virus (RSV) promoter/cassette was used as an internal control for transfection efficiency. Transient transfection assays were carried out as described in ref. [44]. […]

[3] = exposure for 6 h, compound alone

## C=C1C(=O)C23CCC4C(C(=O)OC)CC(O)CC4(C)C2CCC1C3 (centres unmarked) [Compound 1, 15-ketoatractyligenin methyl ester]
[1]; [3]
  p21^waf1/cip1 levels: sharply increased
  p-AKT levels: robust reduction
[1]; exposure for 48 h
  PARP cleaved form: increase
  pro-caspase 3 precursor expression: reduction
[2]
  luciferase activity less than Rosiglitazone: 40%
